Data on 11 compounds can be found in paper PMC5835316 (Chemosphere, 2017).

By EC50 is commonly meant the concentration at which the effect is half-maximal.

Like-named read-outs stand apart in the source and are kept apart here.

The subject of series [1] is zebrafish (Danio rerio) embryo. As to the kind of experiment: zebrafish embryo teratogenicity assay. Conditions: for percent deformity: 15, 30 and 60 µM (≥ 15 µM); for EC50: read-out: EC50 (for teratogenicity) and LC50, equivalently calculated; for EC50/LC50: retinoids, deformity equivalent to mortality, probit analysis.
The format of series [2] is physicochemical. Conditions: mild heating; standing at room temperature and ambient light.
The test system of series [3] is zebrafish (Danio rerio) embryo. As to conditions: ref Hermann, 1995; Selderslaghs et al., 2009; Wang et al., 2014; cited from earlier work.
Another series deals with RAR. Conditions: ref Repa et al., 1993; cited from earlier work.

Consider “4-Hydroxymyxol 2′-glycoside [Compound 3]”, for which the “teratogenicity (qualitative, bioassay-guided fractionation)” value in series [1] (in vivo) is given as “single bioactive component”.

As to 4-Ketomyxol 2′-glycoside [Compound 2], the “observed deformities (Fig. 5)” value in series [1] (3 and 5 dpf) was “head and eye hypoplasia and truncated tail”. Further, in series [1] (by 3 dpf), the “additional concentration with significant percent deformity” value came out at 5 µM, the “concentration showing pronounced developmental dysfunction” value is not below 5 µM and the percent deformity stood at 100%. The EC50 in series [1] (at 5 dpf, ± standard error) was 1.8 ± 0.2 µM. Moreover, in series [2], the stability result is given as “highly unstable”.

Consider `CC1=C(/C=C/C(C)=C/C=C/C(C)=C/C=C/C=C(C)/C=C/C=C(C)/C=C/C=C(C)/C=C/[C@H](O[C@@H]2O[C@@H](C)[C@@H](O)[C@@H](O)[C@@H]2O)C(C)(C)O)C(C)(C)C[C@H](O)C1` [Compound 1, Myxol 2′-glycoside], for which the “observed deformities (Fig. 5)” value in series [1] (5 µM, 3 and 5 dpf) is “head and eye hypoplasia, truncated tail and pericardial edema”. Further, in series [1] (by 3 dpf), the “concentration showing pronounced developmental dysfunction” value is given as not below 5 µM and the percent deformity is reported as 100%. Moreover, in series [1] (at 5 dpf, ± standard error), the half-maximal effective concentration (EC50) is 2.4 ± 0.9 µM. Moreover, the stability entry in series [2] is “highly unstable”.

Turning to `CC1=C(/C=C/C(C)=C/C=C/C(C)=C/C(=O)O)C(C)(C)CCC1` [RA, all-trans retinoic acid], the “teratogenicity at lowest concentration tested” value in series [1] (1 µM) was “effectively lethal”. In addition, the “observed deformities (Fig. 5)” value in series [1] (1 µM, 3 dpf and 5 dpf) was “severely arrested development of the body axis including head and eye hypoplasia and truncated tail”. Besides, the “LC50 and EC50 (for teratogenicity) previously reported in the zebrafish embryo” value in series [3] is given as “nanomolar to sub-nanomolar range”.

As to `CC1=C(/C=C/C(C)=C/C=C/C(C)=C/C=C/C=C(C)/C=C/C=C(C)/C=C/C2=C(C)C(=O)CCC2(C)C)C(C)(C)CCC1=O` [canthaxanthin], the “observed deformities (Fig. 5)” value in series [1] (30 µM, 3 dpf) is “head and eye hypoplasia and truncated tail”. Besides, the “percent deformity (development toxicity)” value in series [1] (2 dpf, 60 µM) is recorded as “approximately 89%”. The same compound had a percent deformity in series [1] (by 3 dpf) of 100%. Besides, the concentration for a half-maximal effect (EC50) in series [1] (at 5 dpf, ± standard error) is 8.7 ± 1.8 µM.

Regarding `CC1=C[C@H](O)CC(C)(C)[C@H]1/C=C/C(C)=C/C=C/C(C)=C/C=C/C=C(C)/C=C/C=C(C)/C=C/C1=C(C)C[C@@H](O)CC1(C)C` [lutein], in series [1] (30 µM), the “observed deformities (Fig. 5)” value was “head and eye hypoplasia and truncated tail”. Further, the 50% effective concentration (EC50) in series [1] (Danio rerio) was 4.7 ± 3 µM. The compound further yielded a percent deformity in series [1] (by 3 dpf) of 100%.

On to `CC1=C(/C=C/C(C)=C/C=C/C(C)=C/C=O)C(C)(C)CCC1` [retinal, all-trans retinaldehyde], for which the EC50/LC50 in series [1] is recorded as 1.8 ± 0.7 µM. The “binding affinity to RAR” value with RAR is “essentially no binding affinity”.

On to `CC1=C(/C=C/C(C)=C/C=C/C(C)=C/CO)C(C)(C)CCC1` [retinol], for which, in series [1], the EC50/LC50 came out at 9.2 ± 7.6 µM.

Take `CC1=C(/C=C/C(C)=C/C=C/C(C)=C/C=C/C=C(C)/C=C/C=C(C)/C=C/C2=C(C)C[C@@H](O)CC2(C)C)C(C)(C)C[C@H](O)C1` [zeaxanthin]: the “observed deformities (Fig. 5)” value in series [1] (60 µM, 3 dpf) is “little effect”. Further, in series [1] (3–5 dpf, 60 µM), the embryo development result was “developed normally”. The teratogenicity entry in series [1] (5-day exposure studies, 1-60 µM) is “no teratogenicity was observed”.

On to `CC1=C(/C=C/C(C)=C/C=C/C(C)=C/C=C/C=C(C)/C=C/C=C(\C)C=O)C(C)(C)CCC1` [β-apo-8’carotenal, trans-β-apo-8’carotenal], for which the teratogenicity entry in series [1] (at 3 dpf) is “no teratogenicity was observed”. Besides, the “developmental toxicity (percent deformity)” value in series [1] (at 5 dpf, not significantly different from controls) is on record as ~ 22%.

In the case of `CC1=C(/C=C/C(C)=C/C=C/C(C)=C/C=C/C=C(C)/C=C/C=C(C)/C=C/C2=C(C)CCCC2(C)C)C(C)(C)CCC1` [β-carotene], the “observed deformities (Fig. 5)” value in series [1] (30 µM, 5 dpf) is “truncated tail and pericardial edema”. Further, in series [1] (Danio rerio), the EC50 was 23.5 ± 8.9 µM.
